Data as given in PMC3068151 (PLoS ONE, 2011).

Legend:
[1] = molecular target: T1, EphA2-ephrinA1 binding (Mus musculus, UniProt Q03145); assay: ELISA EphA2-ephrinA1 binding (displacement and saturation)
T1 construct: we immobilized EphA2-Fc- ectodomain on proper ELISA plates; purchased R&D systems 639-A2 (EphA2-Fc); BT602 (biotinylated ephrinA1-Fc)
Protocol: Our chemical collection (Table S1) was stocked in a 20 mM dimethyl sulfoxide (DMSO) solution and we performed binding assay at a concentration of 200 µM. Only compounds displacing more than 40% ephrinA1 from EphA2 receptor were considered for a full concentration-binding curve. […] The day after wells were washed three times with washing buffer (PBS +0.05% tween20, pH 7.5) and blocked with 300 µl of blocking solution (PBS +0.5% BSA) for 1 hour at 37°C. Compounds were added to the wells at proper concentration in 1% dimethyl sulfoxide (DMSO) and incubated at 37°C for 1 hour. Biotinylated ephrinA1-Fc (R&D BT602) was added at 37°C for 4 hours at 30 ng/ml in displacement assays or in a range from 1 to 2000 ng/ml in saturation studies. […] The reaction was stopped with 3N HCl 100 µl/well and the absorbance was measured using an ELISA plate reader (Sunrise, TECAN, Switzerland) at 450 nm.
The IC50 value was determined using one-site competition non-linear regression and Kd values of the curves with or without antagonists were calculated using one-binding site non-linear regression analysis with Prism software (GraphPad Software Inc.). The Ki was obtained using Schild plot where Log[DR-1] is a function of the negative Log10 of the inhibitor concentration. The Hill's coefficient was calculated using linear fitting to evaluate whether the inhibition was competitive or uncompetitive.
To identify compounds interfering with EphA2-ephrinA1 binding we immobilized EphA2-Fc- ectodomain on proper ELISA plates and binding of biotinylated-ephrin-A1-Fc was detected using the colorimetric reaction developed by streptavidine-HRP and tetramethylbenzidine.

[2] = molecular target: T2, EGFR (Homo sapiens, UniProt P00533); assay: Phosphorylated-EGFR sandwich ELISA in PC3 cells; type: cell-based; settings: 100 µM, 30 ng/ml EGF
Protocol: (§1) Cells were seeded in 12-well plates at concentration of 10^5cells/ml in complete medium until they reached ∼40% confluence and serum starved overnight. The day after cells were treated with compounds under study, vehicle or standard drug, stimulated with the proper agonist, rinsed with sterile PBS and solubilized in lysis buffer. The lysates were resuspended and rocked at 4°C for 30 minutes and then centrifuged at 14000 xg for 5 minutes. The protein content of supernatant was measured with BCA protein assay kit (Thermo scientific), standardized to 200 µg/ml and transferred into a clean test tube ready to be used.
(§2) EphA2-, EphB4- and EGFR-phosphorylation were measured in cell lysates using DuoSet®IC Sandwich ELISA (RnD Systems, #DYC4056, #DYC4057 and #DYC1095, respectively) following manufacturer's protocol. […] The day after wells were washed and blocked for 1 hour at room temperature. After that, wells were washed and 100 µl/well of lysates were added at room temperature for 2 hours; wells were washed and incubated with Detection Antibody at room temperature for 2 hours.
(§3) A, B) EGFR phosphorylation was induced by 30 ng/ml and 10 ng/ml EGF on PC3 (A) and HT29 (B) cells, respectively. […] Data are the means of two experiments ± st. err.

[3] = molecular target: T2, EGFR; assay: Phosphorylated-EGFR sandwich ELISA in HT29 cells; type: cell-based; settings: 100 µM, 10 ng/ml EGF
Protocol: as §1, §2, §3

[4] = test system: VEGFR; assay: VEGFR activity, cellular dielectric spectroscopy in HUVE cells; type: cell-based; settings: 100 µM, 0.1 nM VEGF
Protocol: Impedance measurement was monitored for 10 minutes. VEGF receptor tyrosine kinase inhibitor II (Calbiochem-Merck, Darmstadt, Germany) was used as a standard reference.
These assays were performed at CEREP (Celle L'Evescault, France).
as §3

T1 sequence (Q03145 26-538 limits assumed): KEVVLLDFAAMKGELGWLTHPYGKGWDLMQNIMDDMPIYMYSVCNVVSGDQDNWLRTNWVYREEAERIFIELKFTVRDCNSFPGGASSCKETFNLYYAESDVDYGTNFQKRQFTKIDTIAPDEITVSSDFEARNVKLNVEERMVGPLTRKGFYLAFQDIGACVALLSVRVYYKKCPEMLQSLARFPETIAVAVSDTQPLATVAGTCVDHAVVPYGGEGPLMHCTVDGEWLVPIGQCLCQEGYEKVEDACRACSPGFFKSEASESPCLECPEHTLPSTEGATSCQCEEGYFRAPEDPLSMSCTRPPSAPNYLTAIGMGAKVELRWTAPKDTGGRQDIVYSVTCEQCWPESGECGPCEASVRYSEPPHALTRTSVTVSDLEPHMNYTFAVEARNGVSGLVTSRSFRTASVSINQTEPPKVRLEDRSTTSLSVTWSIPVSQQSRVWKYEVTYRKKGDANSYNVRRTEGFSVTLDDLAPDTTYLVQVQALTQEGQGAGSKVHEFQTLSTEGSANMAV
T2 sequence (P00533 25-1210): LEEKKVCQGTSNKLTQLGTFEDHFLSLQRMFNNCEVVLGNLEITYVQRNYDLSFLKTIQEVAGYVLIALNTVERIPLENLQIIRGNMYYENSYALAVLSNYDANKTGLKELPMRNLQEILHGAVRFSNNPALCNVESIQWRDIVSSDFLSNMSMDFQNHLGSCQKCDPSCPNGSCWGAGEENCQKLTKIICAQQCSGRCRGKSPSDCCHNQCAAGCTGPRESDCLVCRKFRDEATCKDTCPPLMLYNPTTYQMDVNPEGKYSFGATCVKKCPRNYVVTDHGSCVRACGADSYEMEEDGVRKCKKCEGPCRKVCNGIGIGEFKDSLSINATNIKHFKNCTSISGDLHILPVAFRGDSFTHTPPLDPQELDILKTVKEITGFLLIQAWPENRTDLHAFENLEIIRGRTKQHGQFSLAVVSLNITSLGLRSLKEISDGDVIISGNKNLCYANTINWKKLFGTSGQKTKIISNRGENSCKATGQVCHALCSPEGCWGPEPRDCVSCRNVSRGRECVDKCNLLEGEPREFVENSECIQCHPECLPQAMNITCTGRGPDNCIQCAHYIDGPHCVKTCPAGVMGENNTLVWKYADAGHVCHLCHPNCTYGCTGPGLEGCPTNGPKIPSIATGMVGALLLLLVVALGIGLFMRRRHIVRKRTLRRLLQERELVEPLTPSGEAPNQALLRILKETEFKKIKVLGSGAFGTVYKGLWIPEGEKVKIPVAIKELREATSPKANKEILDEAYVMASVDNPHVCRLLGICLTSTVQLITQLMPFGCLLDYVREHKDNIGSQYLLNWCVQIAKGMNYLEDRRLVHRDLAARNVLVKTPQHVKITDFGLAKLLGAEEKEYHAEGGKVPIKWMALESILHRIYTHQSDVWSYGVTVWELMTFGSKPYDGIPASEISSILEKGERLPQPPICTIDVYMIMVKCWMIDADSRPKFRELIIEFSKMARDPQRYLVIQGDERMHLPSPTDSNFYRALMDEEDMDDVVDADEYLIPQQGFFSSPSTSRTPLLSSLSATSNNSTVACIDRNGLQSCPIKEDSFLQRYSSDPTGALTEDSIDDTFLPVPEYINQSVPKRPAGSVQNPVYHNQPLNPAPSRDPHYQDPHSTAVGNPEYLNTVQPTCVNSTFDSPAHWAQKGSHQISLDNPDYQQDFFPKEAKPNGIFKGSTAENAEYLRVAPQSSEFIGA

Structure (SMILES): C[C@H](CCC(=O)O)[C@H]1CC[C@H]2[C@@H]3CC[C@@H]4C[C@H](O)CC[C@]4(C)[C@H]3CC[C@]12C [LCA, lithocholic acid]
- reduction of EphA2-ephrinA1 binding (library screening) ([1]; 200 µM, incubated 1 hour): significantly reduce
- decrease of EphA2-ephrinA1 binding ([1]; bile acids, repeat of the 200 µM experiment): 68.2%±4.3
- Ki ([1]; corresponding to pKi, read-out: Ki (Schild plot)): 49 µM
- IC50 ([1]; read-out: IC50 displacement of biotinylated-ephrinA1-Fc from EphA2): 57 µM
- slope of Schild plot ([1]; saturation curves with increasing LCA, r^2 = 0.9664): 0.8618
- effect on EGF-induced EGFR phosphorylation [2]: completely inactive
- effect on EGF-induced EGFR phosphorylation [3]: completely inactive
- effect on VEGFR activity as agonist or antagonist [4]: failed to affect activity
